The subject of one assay is isolated trachea. Put plainly: Allergen (OA)-induced contraction of isolated trachea from sensitized guinea pigs. Particulars: 20 µM compound. Also noted: species or system guinea pig. The method, then:
The effects of a number of the compounds described herein on allergen-induced bronchoconstriction were evaluated for anti-asthma activity. The ability of a compound to inhibit allergen-induced decreases in lung function in sensitized guinea pigs in response to antigen-challenge is indicative of anti-asthma activity. In particular, the model system is useful in the evaluation of the potential effects of a compound in the treatment of the early asthmatic reaction (EAR) when severe bronchoconstriction occurs.
Guinea pigs were exposed to a nebulized solution of 1% ovalbumin (OA) in saline for 15 min. […] Tracheal rings were prepared and bathed in Krebs-Henseleit solution at 37°C and aerated with 5% CO2 in O2. Tissues were suspended under a resting tension of 2 g and isometric contractions were measured using force-displacement transducers coupled to a polygraph. Tissues were incubated with each compound or 0.1% dimethylsulfoxide (as a control) for 20 min, after which increasing concentrations of OA (0.001 - 100 µg/ml) were added to the tissue. After the final concentration of OA was added and the response was recorded, the tissues were stimulated with 100 µM methacholine which caused maximum contraction of the trachea. The magnitude of the contraction induced by OA in the presence of each compound was expressed as a percentage of the maximum contraction obtained using methacholine (100 µM).

For a further assay, the system named is rabbit platelets. Put plainly: Inhibition of PAF-induced aggregation of rabbit platelets. Type of assay: cell-based. The settings on record: 80 µM compound, 5 min preincubation, PAF-induced aggregation (title: 0.1 nM PAF) vs DMSO alone; for inhibition at 80 µM: Oryctolagus cuniculus, Platelet. The method, then:
The assay system used to evaluate the ability of compounds to inhibit the aggregation of platelets in response to exogenous stimuli is indicative of anti-thrombotic or thrombolytic activity.
Platelets were isolated from rabbit blood and prepared at a density of 2.4 x 10^8 cells/ml in Tyrodes buffer (pH 7.2) containing Ca^2+. Platelets were incubated with each compound for 5 min at 37°C prior to stimulation. Platelets were stimulated with 1 nM platelet activating factor (PAF; EC75) in the presence of each of the compounds and aggregation was monitored for 5 min. Compounds were solubilized in dimethylsulfoxide (DMSO) and aggregation was measured as a percentage of the response to 1 nM PAF obtained in the presence of the appropriate concentration of DMSO. The degree of inhibition caused by each sample was calculated using the control response in the presence of DMSO equal to 100%.

The test system of assay [1] is rat mast cell line (RBL-2H3). The experiment in a line: Antigen-induced release of hexosaminidase from passively sensitized rat mast cells. Type of assay: cell-based. The settings on record: Table 3; each 25 µM; vs DMSO alone. The method, then: The anti-allergic effects of various polyhydroxylated steroids of the present invention were evaluated by measuring their effect on antigen-induced secretion of hexosaminidase from a passively sensitized rat mast cell line (RBL-2H3) and a murine mast cell line (MC/9). The ability of agents to inhibit the release of mast cell granule contents, e.g., histamine and hexosaminidase, is indicative of anti-allergy and/or anti-asthma activity.
Hexosaminidase is released from the mast cell granule along with histamine and other mediators during antigen challenge. RBL-2H3 and MC/9 cells were grown in culture and passively sensitized to dinitrophenol (DNP) using anti-human-DNP (IgE). […] Aliquots of the supernatant were removed and used to measure the amount of hexosaminidase released during challenge with the antigen. […] The effect of each compound was determined as a percentage of the antigen-induced response (minus background release) obtained in the presence of DMSO alone, as set forth in Tables 2 and 3. These values were used to determine the degrees of inhibition of antigen-induced hexosaminidase release from the cells.

Assay [2] relates to ileum from sensitized guinea pigs. The experiment in a line: Antigen (ovalbumin)-induced contraction of isolated ileum from sensitized guinea pigs. Also noted: species or system guinea pig. Particulars: each 30 µM, 20 min; 100 µg/ml ovalbumin; mean, n=3-4, vs DMSO alone. The method, then:
The ability of compounds to inhibit allergen-induced contraction of ileum from sensitized animals is indicative of antiallergic activity. Sensitized guinea pig ileum is particularly useful in measuring the immediate allergic response.
The guinea pig ileum has been used to evaluate the ability of compounds to inhibit allergen-induced histamine and mediator release causing smooth muscle contraction. Guinea pigs were sensitized by an intraperitoneal injection of 100 mg ovalbumin and an intramuscular injection of 50 mg ovalbumin on day 0, followed by a second intramuscular injection of 50 mg ovalbumin on day 1. […] Segments of ileum were prepared and suspended, with muscle contractions being measured in the longitudinal plane, in Tyrode's buffer at 37°C and aerated with 5% CO2 in O2. Tissues were suspended under a resting tension of 2 grams and isometric contractions were measured using force-displacement transducers coupled to a polygraph. Tissues were stimulated with 3 µM histamine 3 times to ensure reproducible contractions were obtained. Tissues were then incubated with each compound (30 µM) or 0.15% dimethylsulphoxide (DMSO) as a control, for 20 min, after which time the tissues were challenged with 100 µg/ml ovalbumin. The magnitude of the contraction induced by OA in the presence of each compound was expressed as a percentage of the contraction obtained to 3 µM histamine. […]

The results in this text go back to patent publication EP1304333A2, “6,7-Oxygenated steroids and uses related thereto” (Inflazyme Pharmaceuticals, Ltd., priority 1996, dated 1998).

Consider “3β, 4α, 6α, 7β, 17β-pentahydroxy-5α-androstane 6,7-acetonide [Compound 246]”, for which the “percentage contraction compared to 100µM methacholine (100%)” value (“percentage contraction … (100%)” for short) with isolated trachea (Study 1, 0.001 µg/ml OA) is 2.6%; in the assay on isolated trachea (Study 1, 0.003 µg/ml OA) it was 4.0%; in the assay on isolated trachea (Study 1, 0.01 µg/ml OA) it was 6.5%; in the assay on isolated trachea (Study 1, 0.03 µg/ml OA), 9.7%; in the assay with isolated trachea (Study 1, 0.1 µg/ml OA) it was 12.2%; in the assay on isolated trachea (Study 1, 0.3 µg/ml OA), 15.3%. Further, the “percentage contraction … (100%)” value with isolated trachea (Study 1, 1.0 µg/ml OA) was determined as 20.0%; in the assay on isolated trachea (Study 1, 3.0 µg/ml OA), 21.0%; in the assay with isolated trachea (Study 1, 10.0 µg/ml OA) it was 23.0%; in the assay with isolated trachea (Study 1, 30.0 µg/ml OA), 22.0%. In addition, the “%Inhibition at 80 µM” value with rabbit platelets is recorded as 21%. The “Percentage Inhibition (mean) RBL-2H3 Cells” value in assay [1] worked out at 29.4%.

For `C[C@]12CC[C@@H](O)[C@H](O)C1[C@@H](O)[C@H](O)C1C2CC[C@]2(C)C(=O)CCC12` (some centres unmarked) [Compound 145], the “percentage contraction … (100%)” value worked out at 0.8% with isolated trachea (Study 1, 0.001 µg/ml OA); 6.2% with isolated trachea (Study 1, 0.003 µg/ml OA); 5.9% in the assay on isolated trachea (Study 1, 0.01 µg/ml OA); 7.6% in the assay with isolated trachea (Study 1, 0.03 µg/ml OA); 8.3% with isolated trachea (Study 1, 0.1 µg/ml OA); 13.6% in the assay with isolated trachea (Study 1, 0.3 µg/ml OA). The “percentage contraction … (100%)” value with isolated trachea (Study 1, 1.0 µg/ml OA) was 14.8%; with isolated trachea (Study 1, 3.0 µg/ml OA), 20.0%; with isolated trachea (Study 1, 10.0 µg/ml OA), 28.0%; in the assay with isolated trachea (Study 1, 30.0 µg/ml OA), 31.0%.

Molecule `CC(C)[C@@H]1CC(O)OC([C@@H](C)[C@H]2CC(=O)[C@@H]3[C@@H]4C(O)C(O)C5C(O)C(O)CC[C@]5(C)[C@H]4CC[C@]23C)C1` (stereo partly drawn) [Compound 165, 22,29-epoxy-3,4,6,7,29-pentahydroxy-14β-stigmastan-15-one] registered an inhibition at 80 µM in the assay with rabbit platelets of 51.2%. Besides, in assay [2], the “Percentage Inhibition” value stood at 27.0%.

Regarding `CC1(C)O[C@@H]2C3C(CC[C@@]4(C)C3CC[C@@H]4O[Si](C)(C)C(C)(C)C)[C@@]3(C)CC[C@H](O)[C@@H](O)C3[C@H]2O1` (some centres unmarked) [Compound 236], the “percentage contraction … (100%)” value in the assay with isolated trachea (Study 1, 0.001 µg/ml OA) is 1.9%; with isolated trachea (Study 1, 0.003 µg/ml OA), 5.6%; with isolated trachea (Study 1, 0.01 µg/ml OA) it was 5.6%; in the assay on isolated trachea (Study 1, 0.03 µg/ml OA), 5.6%; with isolated trachea (Study 1, 0.1 µg/ml OA) it was 11.1%; in the assay on isolated trachea (Study 1, 0.3 µg/ml OA), 16.7%. Besides, the “percentage contraction … (100%)” value was 39% with isolated trachea (Study 1, 1.0 µg/ml OA); 28% in the assay with isolated trachea (Study 1, 3.0 µg/ml OA); 39% in the assay with isolated trachea (Study 1, 10.0 µg/ml OA); 41% in the assay on isolated trachea (Study 1, 30.0 µg/ml OA).

Take `C[C@]12CC[C@@H](O)[C@H](O)[C@@H]1[C@@H](O)[C@H](O)[C@@H]1[C@@H]2CC[C@]2(C)[C@@H](O)CC[C@@H]12` [Compound 241, 3α,4β,6α,7β,17β-pentahydroxy-5α-androstane]: the “percentage contraction … (100%)” value with isolated trachea (Study 1, 0.001 µg/ml OA) was 8.5%; in the assay on isolated trachea (Study 1, 0.003 µg/ml OA) it was 12.6%; in the assay on isolated trachea (Study 1, 0.01 µg/ml OA) it was 17.1%; in the assay on isolated trachea (Study 1, 0.03 µg/ml OA), 25.8%; in the assay with isolated trachea (Study 1, 0.1 µg/ml OA), 31.0%; in the assay on isolated trachea (Study 1, 0.3 µg/ml OA), 33.4%. The “percentage contraction … (100%)” value amounted to 36.3% with isolated trachea (Study 1, 1.0 µg/ml OA); 34.4% with isolated trachea (Study 1, 3.0 µg/ml OA); 35.0% in the assay with isolated trachea (Study 1, 10.0 µg/ml OA); 37.0% in the assay on isolated trachea (Study 1, 30.0 µg/ml OA). For the same molecule, the inhibition at 80 µM in the assay on rabbit platelets stood at 93.1%.

Turning to `C[C@]12CC[C@@H](O)C[C@@H]1[C@@H](O)[C@H](O)[C@@H]1[C@@H]2CC[C@]2(C)C(=O)CC[C@@H]12` [Compound 326], the “percentage contraction … (100%)” value with isolated trachea (Study 2, 0.01 µg/ml OA) is reported as 0%; in the assay with isolated trachea (Study 2, 0.1 µg/ml OA), 10.25%; with isolated trachea (Study 2, 1 µg/ml OA), 23.4%; with isolated trachea (Study 2, 10 µg/ml OA) it was 43.9%; in the assay with isolated trachea (Study 2, 100 µg/ml OA) it was 49.1%.

With `C[C@]12CC[C@@H](O)C[C@@H]1[C@@H](O)[C@H](O)[C@@H]1[C@@H]2CC[C@]2(C)[C@@H](O)CC[C@@H]12` [Compound 327], the “percentage contraction … (100%)” value in the assay with isolated trachea (Study 2, 0.01 µg/ml OA) was determined as 0%; in the assay with isolated trachea (Study 2, 0.1 µg/ml OA) it was 0%; in the assay with isolated trachea (Study 2, 1 µg/ml OA), 9.1%; in the assay on isolated trachea (Study 2, 10 µg/ml OA), 27.3%; with isolated trachea (Study 2, 100 µg/ml OA) it was 40.9%.

With `CC[C@H]1CCC2C3C(CC[C@@]21C)[C@@]1(C)CC[C@@H](O)CC1[C@@H](O)[C@@H]3O` (some centres unmarked) [Compound 339], in assay [2], the “Percentage Inhibition” value stood at 36.3%.

As a reminder, the %Inhibition is the change of the read-out against control, counted positive when it falls. The low end stands for a response near the control, the high end for a response far below the control. The inhibition is the drop in the measured response relative to a control, in per cent.
